Laboratory results reported in patent US10098887B2, “Antiviral compounds and methods of use thereof” (Trana Discovery, Inc., priority 2010, dated 2018).

experiment: assays described herein (not specified)

Compound | active in the assays described herein
O=[N+]([O-])c1ccccc1SNc1ccc2c(c1)OCO2 [Compound 75, 5-{[(2-nitrophenyl)thio]amino}-1,3-benzodioxole] | active
Cn1cccc1C=NN1CCN(Cc2cccc3ccccc23)CC1 [Compound 83, N-[(1-methyl-1H-pyrrol-2-yl)methylene]-4-(1-naphthylmethyl)-1-piperazinamine] | active
Oc1ccc(C(c2c[nH]c3ccccc23)c2c[nH]c3ccccc23)cc1O [Compound 86, 4-(di-1H-indol-3-ylmethyl)-1,2-benzenediol] | active
O=C(c1ccc(Br)cc1)c1ccc(N2CCCCC2)c([N+](=O)[O-])c1 [Compound 92, (4-bromophenyl)[3-nitro-4-(1-piperidinyl)phenyl]methanone] | active
CN(C)c1ccc2sc(S)nc2c1 [Compound 95, 5-(dimethylamino)-1,3-benzothiazole-2-thiol] | active
CCOc1ccc(C(=O)c2ccc(N3CC(C)OC(C)C3)c([N+](=O)[O-])c2)cc1 (stereo not shown) [Compound 102, [4-(2,6-dimethyl-4-morpholinyl)-3-nitrophenyl](4-ethoxyphenyl)methanone] | active
O=C(c1cccs1)N1CCN(c2ccc([N+](=O)[O-])c(N3CCCC3)c2)CC1 [Compound 114, 1-[4-nitro-3-(1-pyrrolidinyl)phenyl]-4-(2-thienylcarbonyl)piperazine] | active
